Test results published in patent US20230116114A1, “COMPOUNDS AND COMPOSITIONS FOR TREATING CNS DISORDERS” (Blue Oak Pharmaceuticals, Inc., priority 2020, published 2023).
Structures can show the parent of a compound that is named as a salt.

System: mice
Test: SmartCube in vivo neuropharmacological behavioral assay
Conditions: for minimal effective dose: Mus musculus, ip, 0.25 h, dose having 50% or more total activity in SmartCube, i.p., read-out: MED (minimal effective dose); for AD: antidepressant (percent probability) / AG: analgesic (percent probability) / AP: antipsychotic (percent probability) / AX: anxiolytic (percent probability) / CE: cognitive enhancer (percent probability) / HA: hallucinogenic (percent probability) / MS: mood stabilizer (percent probability) / PS (percent probability) / SD: sedative hypnotic (percent probability) / SE: side effects (percent probability) / UN: uncharacterized CNS activity (percent probability) / XG: anxiogenic (percent probability): SmartCube, i.p. 15 min before test, result at the MED
Method: The compounds were evaluated for their CNS related properties (e.g., the treatment, prevention or diagnosis of CNS or CNS-related disorders and/or amelioration of symptoms) using neuropharmacological screening methods described in S. L. Roberts et al., Front. Neurosci. 2011, 5:103 (hereinafter referred to as “Roberts,” the contents of which are incorporated herein by reference in their entirety).
According to Roberts, intact systems are useful in detecting improvement in disease-relevant endpoints, because psychiatric diseases generally result from disorders of cell-cell communication or circuitry. The endpoints are typically behavioral in nature, often requiring human observation and interpretation. In order to test multiple compounds for behavioral effects relevant to neurological and psychiatric diseases and disorders, PsychoGenics, Inc. (Paramus, N.J. “PGI”) developed SmartCube®, an automated system in which behaviors of compound-treated mice are captured by digital video and analyzed with computer algorithms to facilitate testing of multiple compounds for behavioral effects relevant to psychiatric disease. (D. Brunner et al., Drug Discov. Today 2002, 7:S107-S112; Alexandrov et al., Eur. J. Pharmacol. 2015, 753:127-134; the contents of each of which are incorporated herein by reference in their entirety).
The SmartCube® system is described in Example 2.2 of U.S. Pat. No. 9,758,529 and Example 289 of WIPO Publication No. WO2018/023070, the contents of each of which are incorporated herein by reference in their entirety.
According to the present disclosure, compounds identified may be evaluated using the SmartCube® system. The results of such analysis correlate certain patterns or combinations of behaviors to CNS effects along a percent probability scale of 0-100 where zero (0) reflects the limit of quantitation (LOQ).
The compounds of the present disclosure were evaluated for their CNS related properties (e.g., the treatment, prevention or diagnosis of CNS or CNS-related disorders and/or amelioration of symptoms) using neuropharmacological screening methods described in S. L. Roberts et al., Front. Neurosci. 2011, 5:103 (hereinafter referred to as “Roberts,” the contents of which are incorporated herein by reference in their entirety).
The SmartCube® system described herein was utilized to compare the behavioral signature of a test compound to a database of behavioral signatures obtained using a large set of diverse reference compounds (including but not limited to antipsychotics, anxiolytics, antidepressants and bipolar disorder medicine), thereby predicting the neuropharmacological effects of a test compound by similarity to major classes of compounds. It produces an activity signature indicating the probability that the activity of the test compound at the administered dose matches a given class of neuropharmacological agents. The test compound is simultaneously compared against multiple classes of agents; thus, a separate probability is generated for each behavioral effect measured (such as but not limited to anxiolytic activity and analgesic activity).
The compounds of the present disclosure were dissolved in a mixture of Pharmasolve™ (N-methyl-2-pyrrolidone (NMP)) and were injected i.p. 15 min. before the behavioral test. For each compound, injections were administered at different dose levels (e.g., 0.3, 1, 3, 10 and 30 mg per kg (mpk)). A compound's minimal effective dose (MED; see Table 3) is a measure of the compound's potency. The MED was defined as the dose (in mpk) having 50% or more total activity in SmartCube®. For each behavioral effect measured, results at the MED are presented. CNS activities of the compounds were recorded (see Table 2). In Table 1, a key to the percent probabilities (probability ×100) for each behavioral effect (“X”) are defined provided, where LOQ is the limit of quantification.

Row | SMILES | minimal effective dose [mg/kg] | AD: antidepressant (percent probability) | AG: analgesic (percent probability) | AP: antipsychotic (percent probability) | AX: anxiolytic (percent probability) | CE: cognitive enhancer (percent probability) | HA: hallucinogenic (percent probability) | MS: mood stabilizer (percent probability) | PS (percent probability) | SD: sedative hypnotic (percent probability) | SE: side effects (percent probability) | UN: uncharacterized CNS activity (percent probability) | XG: anxiogenic (percent probability)
1 | c1ccc2c(c1)C1CCCC2N1C1CCCC1 [Compound 4, 12-Cyclopentyl-12-azatricyclo[6.3.1.0^2,7]dodeca-2,4,6-triene hydrochloride] | 1 to 10 | +++ (25% ≤ X < 50%) | ++ (5% ≤ X < 25%) | + (LOQ ≤ X < 5%) | ++ (5% ≤ X < 25%) | + (LOQ ≤ X < 5%) | + (LOQ ≤ X < 5%) | + (LOQ ≤ X < 5%) | ++ (5% ≤ X < 25%) | + (LOQ ≤ X < 5%) | + (LOQ ≤ X < 5%) | + (LOQ ≤ X < 5%) | + (LOQ ≤ X < 5%)
2 | CCC(C)N1C2CCCC1c1ccccc12 (stereo not drawn) [Compound 12, 12-(Butan-2-yl)-12-azatricyclo[6.3.1.0^2,7]dodeca-2,4,6-triene] | 1 to 10 | ++ (5% ≤ X < 25%) | + (LOQ ≤ X < 5%) | + (LOQ ≤ X < 5%) | ++ (5% ≤ X < 25%) | + (LOQ ≤ X < 5%) | + (LOQ ≤ X < 5%) | + (LOQ ≤ X < 5%) | + (LOQ ≤ X < 5%) | + (LOQ ≤ X < 5%) | + (LOQ ≤ X < 5%) | +++ (25% ≤ X < 50%) | + (LOQ ≤ X < 5%)
3 | C[C@H]1CC[C@@H]2N[C@H]1c1ccccc12 (stereo in doubt) [Compound 32, 9-Methyl-12-azatricyclo[6.3.1.0^2,7]dodeca-2,4,6-triene hydrochloride] | 10 to 30 | + (LOQ ≤ X < 5%) | + (LOQ ≤ X < 5%) | + (LOQ ≤ X < 5%) | + (LOQ ≤ X < 5%) | + (LOQ ≤ X < 5%) | ++++ (50% ≤ X < 100%) | + (LOQ ≤ X < 5%) | ++ (5% ≤ X < 25%) | + (LOQ ≤ X < 5%) | + (LOQ ≤ X < 5%) | + (LOQ ≤ X < 5%) | + (LOQ ≤ X < 5%)
4 | CC(C)C(C)N1C2CCCC1c1ccccc12 (stereo not drawn) [Compound 22, 12-(3-Methylbutan-2-yl)-12-azatricyclo[6.3.1.0^2,7]dodeca-2,4,6-triene hydrochloride] | 1 to 10 | ++ (5% ≤ X < 25%) | + (LOQ ≤ X < 5%) | + (LOQ ≤ X < 5%) | + (LOQ ≤ X < 5%) | + (LOQ ≤ X < 5%) | + (LOQ ≤ X < 5%) | + (LOQ ≤ X < 5%) | + (LOQ ≤ X < 5%) | + (LOQ ≤ X < 5%) | + (LOQ ≤ X < 5%) | ++++ (50% ≤ X < 100%) | + (LOQ ≤ X < 5%)
5 | CC(C)N1C2CCCC1c1ccccc12 [Compound 2, 12-(Propan-2-yl)-12-azatricyclo[6.3.1.0^2,7]dodeca-2,4,6-triene] | 1 to 10 | ++ (5% ≤ X < 25%) | ++ (5% ≤ X < 25%) | + (LOQ ≤ X < 5%) | + (LOQ ≤ X < 5%) | + (LOQ ≤ X < 5%) | + (LOQ ≤ X < 5%) | + (LOQ ≤ X < 5%) | + (LOQ ≤ X < 5%) | + (LOQ ≤ X < 5%) | + (LOQ ≤ X < 5%) | +++ (25% ≤ X < 50%) | + (LOQ ≤ X < 5%)
6 | c1ccc2c(c1)C1CCCC2N1 [Compound 1, 12-Azatricyclo[6.3.1.0^2,7]dodeca-2,4,6-triene] | 10 to 30 | ++ (5% ≤ X < 25%) | ++ (5% ≤ X < 25%) | + (LOQ ≤ X < 5%) | ++ (5% ≤ X < 25%) | +++ (25% ≤ X < 50%) | + (LOQ ≤ X < 5%) | + (LOQ ≤ X < 5%) | + (LOQ ≤ X < 5%) | + (LOQ ≤ X < 5%) | ++ (5% ≤ X < 25%) | + (LOQ ≤ X < 5%) | + (LOQ ≤ X < 5%)
7 | CCCN1C2CCCC1c1ccccc12 [Compound 7, 12-Propyl-12-azatricyclo[6.3.1.0^2,7]dodeca-2,4,6-triene hydrochloride] | 10 to 30 | ++ (5% ≤ X < 25%) | +++ (25% ≤ X < 50%) | + (LOQ ≤ X < 5%) | ++ (5% ≤ X < 25%) | + (LOQ ≤ X < 5%) | + (LOQ ≤ X < 5%) | + (LOQ ≤ X < 5%) | ++ (5% ≤ X < 25%) | + (LOQ ≤ X < 5%) | + (LOQ ≤ X < 5%) | + (LOQ ≤ X < 5%) | + (LOQ ≤ X < 5%)
8 | CC([C@H](C)F)N1C2CCCC1c1ccccc12 (stereo in doubt) [Compound 24, 12-(3-Fluorobutan-2-yl)-12-azatricyclo[6.3.1.0^2,7]dodeca-2,4,6-triene hydrochloride] | 10 to 30 | +++ (25% ≤ X < 50%) | + (LOQ ≤ X < 5%) | + (LOQ ≤ X < 5%) | + (LOQ ≤ X < 5%) | + (LOQ ≤ X < 5%) | + (LOQ ≤ X < 5%) | + (LOQ ≤ X < 5%) | ++ (5% ≤ X < 25%) | + (LOQ ≤ X < 5%) | + (LOQ ≤ X < 5%) | + (LOQ ≤ X < 5%) | + (LOQ ≤ X < 5%)
9 | CC(C)N1C2CCC(=O)C1c1ccccc12 (stereo not drawn) [Compound 39, hydrochloride] | > 30 | + (LOQ ≤ X < 5%) | + (LOQ ≤ X < 5%) | + (LOQ ≤ X < 5%) | + (LOQ ≤ X < 5%) | + (LOQ ≤ X < 5%) | + (LOQ ≤ X < 5%) | + (LOQ ≤ X < 5%) | + (LOQ ≤ X < 5%) | + (LOQ ≤ X < 5%) | + (LOQ ≤ X < 5%) | + (LOQ ≤ X < 5%) | + (LOQ ≤ X < 5%)
